Assay results: the CheMixHub ionic liquid set

Experiment: xn = mol fraction of the nth substance listed
Details: 101 kPa, frequency 0.001 MHz

CCCCCCCCCCCCCCn1cc[n+](C)c1.[Br-] + CC[N+](CC)(CC)CC.[Br-] + O
electrical conductivity [S/m]
Details | 298.15 K | 308.15 K
x1 = 4.74e-06, x2 = 0 | 0.00249 | 0.00401
x1 = 4.74e-06, x2 = 1.802e-05 | 0.0133 | 0.0165
x1 = 4.74e-06, x2 = 3.604e-05 | 0.0213 | 0.0264
x1 = 4.74e-06, x2 = 9.009e-05 | 0.0427 | 0.053
x1 = 9.35e-06, x2 = 0 | 0.00459 | 0.00671
x1 = 9.35e-06, x2 = 1.802e-05 | 0.0152 | 0.0187
x1 = 9.36e-06, x2 = 3.604e-05 | 0.023 | 0.0283
x1 = 9.36e-06, x2 = 9.009e-05 | 0.0444 | 0.0542
x1 = 1.386e-05, x2 = 0 | 0.0065 | 0.0093
x1 = 1.386e-05, x2 = 1.802e-05 | 0.017 | 0.0209
x1 = 1.386e-05, x2 = 3.604e-05 | 0.0249 | 0.0306
x1 = 1.387e-05, x2 = 9.009e-05 | 0.0459 | 0.056
x1 = 1.825e-05, x2 = 0 | 0.00834 | 0.011
x1 = 1.826e-05, x2 = 1.802e-05 | 0.0185 | 0.0231
x1 = 1.826e-05, x2 = 3.604e-05 | 0.0264 | 0.0325
x1 = 1.827e-05, x2 = 9.009e-05 | 0.0472 | 0.058
x1 = 2.252e-05, x2 = 0 | 0.0101 | 0.0135
x1 = 2.253e-05, x2 = 1.802e-05 | 0.0201 | 0.0251
x1 = 2.253e-05, x2 = 3.604e-05 | 0.0281 | 0.0343
x1 = 2.255e-05, x2 = 9.009e-05 | 0.0479 | 0.0594
x1 = 2.669e-05, x2 = 0 | 0.0119 | 0.0154
x1 = 2.669e-05, x2 = 1.802e-05 | 0.0216 | 0.0268
x1 = 2.67e-05, x2 = 3.604e-05 | 0.0295 | 0.0364
x1 = 2.671e-05, x2 = 9.009e-05 | 0.049 | 0.0611
x1 = 3.076e-05, x2 = 0 | 0.0136 | 0.0173
x1 = 3.077e-05, x2 = 1.802e-05 | 0.0232 | 0.0286
x1 = 3.077e-05, x2 = 3.604e-05 | 0.0307 | 0.0381
x1 = 3.079e-05, x2 = 9.009e-05 | 0.0493 | 0.0618
x1 = 3.474e-05, x2 = 0 | 0.0152 | 0.0199
x1 = 3.475e-05, x2 = 1.802e-05 | 0.0248 | 0.0305
x1 = 3.475e-05, x2 = 3.604e-05 | 0.0315 | 0.0399
x1 = 3.477e-05, x2 = 9.009e-05 | 0.0495 | 0.0619
x1 = 3.862e-05, x2 = 0 | 0.0167 | 0.0218
x1 = 3.862e-05, x2 = 1.802e-05 | 0.0261 | 0.0324
x1 = 3.863e-05, x2 = 3.604e-05 | 0.0318 | 0.0405
x1 = 3.865e-05, x2 = 9.009e-05 | 0.0494 | 0.0621
x1 = 4.24e-05, x2 = 0 | 0.0183 | 0.0238
x1 = 4.241e-05, x2 = 1.802e-05 | 0.0265 | 0.0333
x1 = 4.242e-05, x2 = 3.604e-05 | 0.0322 | 0.0409
x1 = 4.244e-05, x2 = 9.009e-05 | 0.0497 | 0.0622
x1 = 4.613e-05, x2 = 0 | 0.0192 | 0.0252
x1 = 4.614e-05, x2 = 1.802e-05 | 0.0271 | 0.034
x1 = 4.615e-05, x2 = 3.604e-05 | 0.0326 | 0.0414
x1 = 4.617e-05, x2 = 9.009e-05 | 0.0499 | 0.0623
x1 = 4.973e-05, x2 = 0 | 0.0199 | 0.0265
x1 = 4.974e-05, x2 = 1.802e-05 | 0.0274 | 0.0345
x1 = 4.975e-05, x2 = 3.604e-05 | 0.0329 | 0.0419
x1 = 4.978e-05, x2 = 9.009e-05 | 0.05 | 0.0627
x1 = 5.334e-05, x2 = 0 | 0.0204 | –
x1 = 5.335e-05, x2 = 1.802e-05 | 0.0278 | –
x1 = 5.336e-05, x2 = 3.604e-05 | 0.0333 | –
x1 = 5.339e-05, x2 = 9.009e-05 | 0.0501 | –
x1 = 5.676e-05, x2 = 0 | 0.0209 | –
x1 = 5.677e-05, x2 = 1.802e-05 | 0.0283 | –
x1 = 5.678e-05, x2 = 3.604e-05 | 0.0336 | –
x1 = 5.681e-05, x2 = 9.009e-05 | 0.0503 | –
x1 = 6e-05, x2 = 0 | 0.0213 | –
x1 = 6.001e-05, x2 = 1.802e-05 | 0.0286 | –
x1 = 6.003e-05, x2 = 3.604e-05 | 0.0338 | –
x1 = 6.006e-05, x2 = 9.009e-05 | 0.0505 | –
x1 = 6.343e-05, x2 = 0 | 0.0217 | –
x1 = 6.344e-05, x2 = 1.802e-05 | 0.0289 | –
x1 = 6.345e-05, x2 = 3.604e-05 | 0.0341 | –
x1 = 6.349e-05, x2 = 9.009e-05 | 0.0507 | –
x1 = 6.667e-05, x2 = 0 | 0.0221 | –
x1 = 6.668e-05, x2 = 1.802e-05 | 0.0293 | –
x1 = 6.67e-05, x2 = 3.604e-05 | 0.0344 | –
x1 = 6.673e-05, x2 = 9.009e-05 | 0.0508 | –
x1 = 6.973e-05, x2 = 0 | 0.0225 | –
x1 = 6.975e-05, x2 = 1.802e-05 | 0.0296 | –
x1 = 6.976e-05, x2 = 3.604e-05 | 0.0346 | –
x1 = 6.98e-05, x2 = 9.009e-05 | 0.0511 | –
x1 = 7.28e-05, x2 = 0 | 0.0229 | –
x1 = 7.281e-05, x2 = 1.802e-05 | 0.0299 | –
x1 = 7.282e-05, x2 = 3.604e-05 | 0.0349 | –
x1 = 7.287e-05, x2 = 9.009e-05 | 0.0512 | –
x1 = 7.586e-05, x2 = 0 | 0.0233 | –
x1 = 7.587e-05, x2 = 1.802e-05 | 0.0302 | –
x1 = 7.589e-05, x2 = 3.604e-05 | 0.0351 | –
x1 = 7.593e-05, x2 = 9.009e-05 | 0.0516 | –
x1 = 7.892e-05, x2 = 0 | 0.0236 | –
x1 = 7.894e-05, x2 = 1.802e-05 | 0.0304 | –
x1 = 7.895e-05, x2 = 3.604e-05 | 0.0353 | –
x1 = 7.9e-05, x2 = 9.008e-05 | 0.0519 | –
x1 = 8.18e-05, x2 = 0 | 0.024 | –
x1 = 8.182e-05, x2 = 1.802e-05 | 0.0307 | –
x1 = 8.184e-05, x2 = 3.604e-05 | 0.0356 | –
x1 = 8.188e-05, x2 = 9.008e-05 | 0.0522 | –
x1 = 8.451e-05, x2 = 0 | 0.0243 | –
x1 = 8.452e-05, x2 = 1.802e-05 | 0.0308 | –
x1 = 8.454e-05, x2 = 3.604e-05 | 0.0358 | –
x1 = 8.459e-05, x2 = 9.008e-05 | 0.0524 | –
x1 = 8.739e-05, x2 = 0 | 0.0246 | –
x1 = 8.741e-05, x2 = 1.802e-05 | 0.0312 | –
x1 = 8.742e-05, x2 = 3.604e-05 | 0.036 | –
x1 = 8.747e-05, x2 = 9.008e-05 | 0.0526 | –
